Measurements: patent publication US10246456B2, “IRAK4 inhibiting agents” (BIOGEN MA INC., priority 2014, dated 2019)

Molecular target: IRAK4 (Homo sapiens (Human), UniProt Q9NWZ3)
Assay: IRAK-4 AlphaScreen biochemical kinase assay
Settings: 1 nM IRAK4, 1 mM ATP, 3.5 h at RT
Outline: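 AlphaScreen read-out: streptavidin beads bind the biotinylated peptide and protein A beads bind the anti-phosphothreonine antibody, so energy transfer reports phosphorylation of the peptide. The kinase is human IRAK-4.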

IRAK4, sequence (Q9NWZ3 whole entry, species assumed): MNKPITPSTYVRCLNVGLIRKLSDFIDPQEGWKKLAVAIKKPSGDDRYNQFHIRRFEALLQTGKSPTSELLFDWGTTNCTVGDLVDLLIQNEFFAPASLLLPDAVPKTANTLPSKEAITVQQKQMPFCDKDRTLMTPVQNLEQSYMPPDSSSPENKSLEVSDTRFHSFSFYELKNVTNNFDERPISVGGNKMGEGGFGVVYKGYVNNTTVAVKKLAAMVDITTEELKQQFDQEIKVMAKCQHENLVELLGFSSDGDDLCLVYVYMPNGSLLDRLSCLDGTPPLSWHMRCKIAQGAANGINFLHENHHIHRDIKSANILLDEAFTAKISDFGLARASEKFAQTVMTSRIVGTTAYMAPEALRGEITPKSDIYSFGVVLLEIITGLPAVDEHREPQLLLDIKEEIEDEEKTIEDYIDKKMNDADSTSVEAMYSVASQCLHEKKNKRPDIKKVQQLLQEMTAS

Row | Compound | IC50 [µM]
1 | Cc1cccc(-n2ncc3ccc(-c4cccc5c4CCNC5=O)cc32)n1 [Example 206, 5-(1-(6-methylpyridin-2-yl)-1H-indazol-6-yl)-3,4-dihydroisoquinolin-1(2H)-one] | > 10
2 | CC(=O)c1cccc(-c2cc(F)c3cnn(-c4cccc(C(F)(F)F)n4)c3c2)n1 [Example 207, 1-(6-(4-fluoro-1-(6-(trifluoromethyl)pyridin-2-yl)-1H-indazol-6-yl)pyridin-2-yl)ethanone] | 1 to 10
3 | O=C1CCc2ccc(-c3ccc4cnn(-c5cccc(C(F)(F)F)n5)c4c3)nc21 [Example 210, 2-(1-(6-(trifluoromethyl)pyridin-2-yl)-1H-indazol-6-yl)-5H-cyclopenta[b]pyridin-7(6H)-one] | > 10
4 | N#Cc1cccc(-c2ccc3cnn(-c4cccc(C(F)(F)F)n4)c3c2)n1 [Example 211, 6-(1-(6-(trifluoromethyl)pyridin-2-yl)-1H-indazol-6-yl)picolinonitrile] | 1 to 10
5 | Nc1cc(-c2ccc3cnn(-c4cccc(C(F)(F)F)n4)c3c2)cc(C(=O)O)n1 [Example 213, 6-amino-4-(1-(6-(trifluoromethyl)pyridin-2-yl)-1H-indazol-6-yl)picolinic acid] | 1 to 10
6 | Cc1cccc(-n2ncc3c(C#N)cc(-c4cccc(C(C)N)n4)cc32)n1 (stereo not drawn) [Example 214, 6-(6-(1-aminoethyl)pyridin-2-yl)-1-(6-methylpyridin-2-yl)-1H-indazole-4-carbonitrile] | < 0.1
7 | Cc1cccc(-n2cc3c(CN)cc(-c4cccc(C(C)N)n4)cc3n2)n1 (stereo not drawn) [Example 215, 1-(6-(4-(aminomethyl)-2-(6-methylpyridin-2-yl)-2H-indazol-6-yl)pyridin-2-yl)ethanamine] | 1 to 10
8 | CC(c1cccc(-c2ccc3cnn(-c4cccc(C(F)(F)F)n4)c3c2)n1)N(C)C (stereo not drawn) [Example 216, N,N-dimethyl-1-(6-(1-(6-(trifluoromethyl)pyridin-2-yl)-1H-indazol-6-yl)pyridin-2-yl)ethanamine] | < 0.1
9 | CC(=O)NCc1cc(-c2cccc(C(C)N)n2)cc2nn(-c3cccc(C)n3)cc12 (stereo not drawn) [Example 217, N-((6-(6-(1-aminoethyl)pyridin-2-yl)-2-(6-methylpyridin-2-yl)-2H-indazol-4-yl)methyl)acetamide] | 1 to 10
10 | CC(=O)c1cccc(-c2cc(Cl)c3cnn(-c4cccc(C)n4)c3c2)n1 [Example 218, 1-(6-(4-chloro-1-(6-methylpyridin-2-yl)-1H-indazol-6-yl)pyridin-2-yl)ethanone] | 1 to 10
11 | C/C(=N/O)c1cccc(-c2ccc3cnc(-c4cccc(C(F)(F)F)n4)n3c2)n1 [Example 224, (Z)-1-(6-(3-(6-(trifluoromethyl)pyridin-2-yl)imidazo[1,5-a]pyridin-6-yl)pyridin-2-yl)ethanone oxime] | > 10
12 | CC(=O)c1cccc(-c2cc(N(C)C(=O)OC(C)(C)C)c3cnn(-c4cccc(C)n4)c3c2)n1 [Example 225, tert-butyl (6-(6-acetylpyridin-2-yl)-1-(6-methylpyridin-2-yl)-1H-indazol-4-yl)(methyl)carbamate] | 1 to 10
13 | C/C(=N/O)c1cccc(-c2cc(N(C)C(=O)OC(C)(C)C)c3cnn(-c4cccc(C)n4)c3c2)n1 [Example 226, (Z)-tert-butyl (6-(6-(1-(hydroxyimino)ethyl)pyridin-2-yl)-1-(6-methylpyridin-2-yl)-1H-indazol-4-yl)(methyl)carbamate] | > 10
14 | Cc1cccc(-n2ncc3ccc(-c4cc(N)cc(CN)n4)cc32)n1 [Example 231, 2-(aminomethyl)-6-(1-(6-methylpyridin-2-yl)-1H-indazol-6-yl)pyridin-4-amine] | < 0.1
15 | CC(=O)c1cccc(-c2cc(N(C)C)c3cnn(-c4cccc(C)n4)c3c2)n1 [Example 233, 1-(6-(4-(dimethylamino)-1-(6-methylpyridin-2-yl)-1H-indazol-6-yl)pyridin-2-yl)ethanone] | 1 to 10
16 | CC(N)c1cccc(-c2cc(F)c3cnn(-c4cccc(C(F)(F)F)n4)c3c2)n1 (stereo not drawn) [Example 240, 1-(6-(4-fluoro-1-(6-(trifluoromethyl)pyridin-2-yl)-1H-indazol-6-yl)pyridin-2-yl)ethanamine] | < 0.1
17 | COC(=O)c1nc(-c2ccc3cnn(-c4cccc(C)n4)c3c2)ccc1N [Example 243, methyl 3-amino-6-(1-(6-methylpyridin-2-yl)-1H-indazol-6-yl)picolinate] | 1 to 10
18 | CCOc1cc(-c2cccc(C(C)N)n2)cc2c1cnn2-c1cccc(C)n1 (stereo not drawn) [Example 245, 1-(6-(4-ethoxy-1-(6-methylpyridin-2-yl)-1H-indazol-6-yl)pyridin-2-yl)ethanamine] | < 0.1
19 | COc1cc(-c2cccc(C(C)N)n2)cc2c1cnn2-c1cccc(C)n1 (stereo not drawn) [Example 246, 1-(6-(4-methoxy-1-(6-methylpyridin-2-yl)-1H-indazol-6-yl)pyridin-2-yl)ethanamine] | < 0.1
20 | Cc1cccc(-n2ncc3c(O)cc(-c4cccc(C(C)N)n4)cc32)n1 (stereo not drawn) [Example 250, 6-(6-(1-aminoethyl)pyridin-2-yl)-1-(6-methylpyridin-2-yl)-1H-indazol-4-ol] | < 0.1
21 | Cc1cccc(-n2ncc3c(OCC4CC4)cc(-c4cccc(C(C)N)n4)cc32)n1 (stereo not drawn) [Example 251] | 0.1 to 1
22 | Cc1cccc(-n2ncc3ccc(-c4csc(CN)n4)cc32)n1 [Example 252, (4-(1-(6-methylpyridin-2-yl)-1H-indazol-6-yl)thiazol-2-yl)methanamine] | 0.1 to 1
23 | Cc1cccc(-n2ncc3ccc(-c4ccc(C(F)(F)F)c(C(C)N)n4)cc32)n1 (stereo not drawn) [Example 255, 1-(6-(1-(6-methylpyridin-2-yl)-1H-indazol-6-yl)-3-(trifluoromethyl)pyridin-2-yl)ethanamine] | 0.1 to 1

Results, then the compound that gave them:

Row | IC50 [µM] | Compound
24 | 1 to 10 | C/C(=N/O)c1cccc(-c2cc(Cl)c3cnn(-c4cccc(C)n4)c3c2)n1 [Example 219, (Z)-1-(6-(4-chloro-1-(6-methylpyridin-2-yl)-1H-indazol-6-yl)pyridin-2-yl)ethanone oxime]
25 | 0.1 to 1 | Cc1cccc(-n2ncc3ccc(-c4cccc(C(C)N(C)C)n4)cc32)n1 (stereo not drawn) [Example 220, N,N-dimethyl-1-(6-(1-(6-methylpyridin-2-yl)-1H-indazol-6-yl)pyridin-2-yl)ethanamine]
26 | 1 to 10 | CNc1cc(-c2cccc(/C(C)=N\O)n2)cc2c1cnn2-c1cccc(C)n1 [Example 227, (Z)-1-(6-(4-(methylamino)-1-(6-methylpyridin-2-yl)-1H-indazol-6-yl)pyridin-2-yl)ethanone oxime]
27 | 0.1 to 1 | CCc1cccc(-n2ncc3ccc(-c4cccc(C(C)=O)n4)cc32)n1 [Example 228, 1-(6-(1-(6-ethylpyridin-2-yl)-1H-indazol-6-yl)pyridin-2-yl)ethanone]
28 | 1 to 10 | CC(=O)c1cccc(-c2ccc3cnn(-c4ccccn4)c3c2)n1 [Example 229, 1-(6-(1-(pyridin-2-yl)-1H-indazol-6-yl)pyridin-2-yl)ethanone]
29 | > 10 | C/C(=N\O)c1cccc(-c2ccc3cnn(-c4ccccn4)c3c2)n1 [Example 230, (E)-1-(6-(1-(pyridin-2-yl)-1H-indazol-6-yl)pyridin-2-yl)ethanone oxime]
30 | 0.1 to 1 | Cc1cccc(-n2ncc3ccc(-c4cccc(C(C)N(C)C)n4)cc32)n1 (stereo not drawn) [Example 232, N,N-dimethyl-1-(6-(1-(6-methylpyridin-2-yl)-1H-indazol-6-yl)pyridin-2-yl)ethanamine]
31 | 0.1 to 1 | C/C(=N\O)c1cccc(-c2cc(N(C)C)c3cnn(-c4cccc(C)n4)c3c2)n1 [Example 234, (E)-1-(6-(4-(dimethylamino)-1-(6-methylpyridin-2-yl)-1H-indazol-6-yl)pyridin-2-yl)ethanone oxime]
32 | 1 to 10 | CCc1cccc(-n2ncc3ccc(-c4cccc(/C(C)=N/O)n4)cc32)n1 [Example 235, (E)-1-(6-(1-(6-ethylpyridin-2-yl)-1H-indazol-6-yl)pyridin-2-yl)ethanone oxime]
33 | > 10 | CC(=O)c1cccc(-c2ccc3cnn(-c4cccc(C#N)n4)c3c2)n1 [Example 236, 6-(6-(6-acet6ylpyridin-2-yl)-1H-indazol-1-yl)picolinonitrile]
34 | > 10 | COC(=O)c1cccc(-n2ncc3ccc(-c4cccc(/C(C)=N/O)n4)cc32)n1 [Example 237, (E)-methyl 6-(6-(6-(1-(hydroxyimino)ethyl)pyridin-2-yl)-1H-indazol-1-yl)picolinate]
35 | > 10 | CC(=O)c1cccc(-c2ccc3cnn(-c4nc(C)cs4)c3c2)n1 [Example 239]
36 | < 0.1 | Cc1cccc(-n2ncc3ccc(-c4ccc(F)c(C(C)N)n4)cc32)n1 (stereo not drawn) [Example 242, 1-(3-fluoro-6-(1-(6-methylpyridin-2-yl)-1H-indazol-6-yl)pyridin-2-yl)ethanamine]
37 | 0.1 to 1 | Cc1cccc(-n2ncc3ccc(-c4cccc(C(O)C(F)(F)F)n4)cc32)n1 (stereo not drawn) [Example 244, 2,2,2-trifluoro-1-(6-(1-(6-methylpyridin-2-yl)-1H-indazol-6-yl)pyridin-2-yl)ethanol]
38 | < 0.1 | Cc1cccc(-n2ncc3ccc(-c4cccc(C(N)CCO)n4)cc32)n1 (stereo not drawn) [Example 247, 3-amino-3-(6-(1-(6-methylpyridin-2-yl)-1H-indazol-6-yl)pyridin-2-yl)propan-1-ol]
39 | 0.1 to 1 | Cc1cccc(-n2ncc3ccc(-c4cccc(C(N)=O)n4)cc32)n1 [Example 248, 6-(1-(6-methylpyridin-2-yl)-1H-indazol-6-yl)picolinamide]
40 | 0.1 to 1 | Cc1cccc(-n2ncc3ccc(-c4cccc(CC#N)n4)cc32)n1 [Example 249, 2-(6-(1-(6-methylpyridin-2-yl)-1H-indazol-6-yl)pyridin-2-yl)acetonitrile]
41 | 1 to 10 | CC(=O)NCc1cccc(-c2ccc3cnn(-c4cccc(C)n4)c3c2)n1 [Example 253, N-((6-(1-(6-methylpyridin-2-yl)-1H-indazol-6-yl)pyridin-2-yl)methyl)acetamide]
42 | 0.1 to 1 | Cc1cccc(-n2ncc3ccc(-c4cccc(CCN)n4)cc32)n1 [Example 254, 2-(6-(1-(6-methylpyridin-2-yl)-1H-indazol-6-yl)pyridin-2-yl)ethanamine]
